Experimental data published in paper PMC6136660 (Steroids, 2018).

How the values were obtained:
[1] = test system: adrenal axis (first-in-morning serum cortisol); experiment: First-in-morning serum cortisol (adrenal suppression biomarker), MAD; format: in vivo
Method: (§1) All biomarkers were analyzed using standard immunoassays by PRA.
Adrenal suppression is the consequence of a negative feedback loop between high circulating cortisol and pharmacological glucocorticoids and adrenal function, leading to loss of responsiveness of the adrenal cortex to ACTH. Adrenal suppression can be seen both acutely (hours after a single dose of pharmacological glucocorticoids), and chronically. Chronic treatment with glucocorticoids leads to chronic deficiencies in multiple steroidal hormones, including cortisol, testosterone, 17-hydroxyprogesterone, corticosterone, and 11-deoxycortisol. The resulting hormonal imbalance puts patients at increased risk for a series of safety concerns. One is adrenal crisis (inability to mount a cortisol stress response after trauma, severe illness, or surgery, with ensuring risk for shock and death). Other safety concerns in children include delay of puberty and growth stunting. Adrenal suppression can be measured with first-in-morning serum cortisol, reflective of the endogenous diurnal cortisol peak pre-awakening. Measurement of first-in-morning cortisol 24 h after the last drug dose indicates whether the drug has suppressed the normal diurnal cortisol response.
First in morning serum cortisol levels were measured in all Phase 1 MAD subjects, at baseline prior to first administration of vamorolone or placebo, 24 h after the first dose (acute suppression), and 24 h after 14 days of daily dosing (chronic suppression) (Fig. 4). The two placebo subjects from each dose group were combined into the same panel. […] At 9.0 mg/kg/day, there was a decline in morning cortisol in all subjects, with 1 subject below the 3.6 µg/dL after first dose, and 3 of 6 subjects after two weeks of daily dosing. […] One subject stopped dosing due to mild elevation of liver enzymes, and their morning cortisol returned to normal levels within a few days of cessation of dosing (Fig. 4). Direct head-to-head comparisons to prednisone-treated subjects were not done in this Phase 1 trial, but approximate comparisons can be done to published literature. Both Fleishaker et al. and we tested serum cortisol 24 h after the first dose of drug. Fleishaker et al. studied doses of 2.5, 5, 10, 20 mg, 40 mg, and 60 mg, with an average weight of subjects of 80 kg. […] For vamorolone, the dose groups showing decreases in morning cortisol 24 h after the initial dose were 3 mg/kg (9 µg/dL cortisol), 9 mg/kg (6 µg/dL cortisol), and 20 mg/kg (4 µg/dL cortisol). […] Two week prednisone treatment data for morning cortisol was not published.

[2] = test system: blood glucose (insulin resistance biomarker); experiment: Blood glucose / fasting insulin, MAD; format: in vivo, human; conditions: for Blood glucose: mean±SEM
Method: as §1
Glucocorticoids were originally named as such due to their potent and acute effects on glucose metabolism, where liver and muscle pathways for insulin signaling are rapidly and profoundly affected, creating a state of insulin resistance. […] Fasting insulin and glucose levels were assessed in all dose groups in the vamorolone Phase 1 SAD and MAD.

[3] = test system: osteocalcin; experiment: Serum osteocalcin (bone formation biomarker), MAD; format: in vivo, human; conditions: for Osteocalcin: mean±SEM
Method: as §1
Pharmacological glucocorticoids cause bone side effects including osteopenia and bone fragility. Bone turnover markers bridged to later bone morbidities include osteocalcin for bone formation, and CTX1 (C-terminal telopeptide of collagen 1) for bone absorption. These biomarkers predict phenotypes of osteopenia and used in clinical trials to monitor bone side effects of treatments. […] (Supplemental Fig. 2). In the vamorolone Phase 1 trial, serum osteocalcin levels were assayed prior to dosing (Day 1 predose), 8 h after initial dose (Day 1), pre-dose on day 14 of daily dosing, 8 h after the day 14 (last) dose, and during recovery days 15 and 17.

[4] = Aqueous solubility (statement); format: physicochemical; conditions: aqueous solutions
[5] = test system: adrenal suppression; parameters: method as in PMID 23498916, PMID 24014378, PMID 27133900; conditions: in vitro assays in multiple cell types; cited from earlier work
[6] = MAD 1.0 mg/kg, Day 1 (predose), baseline
[7] = MAD 1.0 mg/kg, Day 14 (predose)
[8] = MAD 3.0 mg/kg, Day 1 (predose), baseline
[9] = MAD 3.0 mg/kg, Day 14 (predose)
[10] = MAD 9.0 mg/kg, Day 1 (predose), baseline
[11] = MAD 9.0 mg/kg, Day 14 (predose)
[12] = MAD 20.0 mg/kg, Day 1 (predose), baseline
[13] = MAD 20.0 mg/kg, Day 14 (predose)

C[C@@H]1C[C@H]2[C@@H]3CCC4=CC(=O)C=C[C@]4(C)C3=CC[C@]2(C)[C@@]1(O)C(=O)CO [vamorolone]
subjects with morning cortisol below 3.6 µg/dL (adrenal suppression) ([1]; 9.0 mg/kg/day, after first dose, n = 6): 1 subjects
subjects with morning cortisol below 3.6 µg/dL (adrenal suppression) ([1]; 9.0 mg/kg/day, after two weeks of daily dosing): 3 of 6
subjects with morning cortisol below 3.6 µg/dL (adrenal suppression) ([1]; 20.0 mg/kg/day, after a single dose): 4 of 6
subjects with morning cortisol below 3.6 µg/dL (adrenal suppression) ([1]; 20.0 mg/kg/day, after two weeks of dosing): 5/5
adrenal suppression ([1]; 1.0 or 3.0 mg/kg/day dose groups, acute and 14 days): No evidence of adrenal suppression
difference in potency for acute adrenal suppression (prednisone > vamorolone) ([1]; 24 h after the first dose, vamorolone data vs published prednisone data (ref 6)): 10 fold
adrenal suppression potency relative to traditional glucocorticoids ([1]; seen at 9.0 and 20.0 mg/kg/day): ~ 1%
Blood glucose [2, 6]: 86 ± 1 md/dL
Blood glucose ([2]; MAD 1.0 mg/kg, Day 2 predose): 87 ± 2 md/dL
Blood glucose ([2]; MAD 1.0 mg/kg, Day 3 predose): 86 ± 2 md/dL
Blood glucose ([2]; MAD 1.0 mg/kg, Day 7 predose): 84 ± 2 md/dL
Blood glucose ([2]; MAD 1.0 mg/kg, Day 12 predose): 83 ± 1 md/dL
Blood glucose [2, 7]: 84 ± 1 md/dL
Blood glucose ([2]; MAD 1.0 mg/kg, Day 17 (3 days after last dose)): 86 ± 1 md/dL
Blood glucose ([2]; MAD 1.0 mg/kg, Day 21 follow-up): 90 ± 3 md/dL
Blood glucose ([2]; MAD 1.0 mg/kg, Day -1, baseline): 90 ± 2 md/dL
Blood glucose ([2]; MAD 1.0 mg/kg, Screening, baseline): 92 ± 1 md/dL
Blood glucose [2, 8]: 87 ± 1 md/dL
Blood glucose ([2]; MAD 3.0 mg/kg, Day 2 predose): 87 ± 1 md/dL
Blood glucose ([2]; MAD 3.0 mg/kg, Day 3 predose): 84 ± 2 md/dL
Blood glucose ([2]; MAD 3.0 mg/kg, Day 7 predose): 82 ± 1 md/dL
Blood glucose ([2]; MAD 3.0 mg/kg, Day 12 predose): 83.1 ± 1.4 md/dL
Blood glucose [2, 9]: 81 ± 2 md/dL
Blood glucose ([2]; MAD 3.0 mg/kg, Day 17 (3 days after last dose)): 84 ± 1 md/dL
Blood glucose ([2]; MAD 3.0 mg/kg, Day 21 follow-up): 91 ± 2 md/dL
Blood glucose ([2]; MAD 3.0 mg/kg, Day -1, baseline): 90 ± 1 md/dL
Blood glucose ([2]; MAD 3.0 mg/kg, Screening, baseline): 90.1 ± 1.5 md/dL
Blood glucose [2, 10]: 89 ± 2 md/dL
Blood glucose ([2]; MAD 9.0 mg/kg, Day 2 predose): 87 ± 1 md/dL
Blood glucose ([2]; MAD 9.0 mg/kg, Day 3 predose): 88 ± 2 md/dL
Blood glucose ([2]; MAD 9.0 mg/kg, Day 7 predose): 87 ± 2 md/dL
Blood glucose ([2]; MAD 9.0 mg/kg, Day 12 predose): 84 ± 2 md/dL
Blood glucose [2, 11]: 84 ± 2 md/dL
Blood glucose ([2]; MAD 9.0 mg/kg, Day 17 (3 days after last dose)): 85 ± 2 md/dL
Blood glucose ([2]; MAD 9.0 mg/kg, Day 21 follow-up): 88 ± 2 md/dL
Blood glucose ([2]; MAD 9.0 mg/kg, Day -1, baseline): 89 ± 1 md/dL
Blood glucose ([2]; MAD 9.0 mg/kg, Screening, baseline): 89 ± 3 md/dL
Blood glucose [2, 12]: 87 ± 1 md/dL
Blood glucose ([2]; MAD 20.0 mg/kg, Day 2 predose): 84 ± 1 md/dL
Blood glucose ([2]; MAD 20.0 mg/kg, Day 3 predose): 83 ± 1 md/dL
Blood glucose ([2]; MAD 20.0 mg/kg, Day 7 predose): 82 ± 1 md/dL
Blood glucose ([2]; MAD 20.0 mg/kg, Day 12 predose): 80 ± 2 md/dL
Blood glucose [2, 13]: 80 ± 2 md/dL
Blood glucose ([2]; MAD 20.0 mg/kg, Day 17 (3 days after last dose)): 81 ± 2 md/dL
Blood glucose ([2]; MAD 20.0 mg/kg, Day 21 follow-up): 91 ± 3 md/dL
Blood glucose ([2]; MAD 20.0 mg/kg, Day -1, baseline): 89 ± 1 md/dL
Blood glucose ([2]; MAD 20.0 mg/kg, Screening, baseline): 90 ± 3 md/dL
fasting insulin and glucose levels vs placebo ([2]; all dose groups SAD and MAD, any time point): did not differ from placebo
Osteocalcin ([3]; MAD 1.0 mg/kg, Day 1 (8 h after initial dose)): 27.4 ± 9.3 ng/mL
Osteocalcin [3, 6]: 33.2 ± 11.5 ng/mL
Osteocalcin ([3]; MAD 1.0 mg/kg, Day 14 (8 h after last dose)): 21.0 ± 7.8 ng/mL
Osteocalcin [3, 7]: 30.3 ± 9.7 ng/mL
Osteocalcin ([3]; MAD 1.0 mg/kg, Day 15 recovery): 28.8 ± 9.3 ng/mL
Osteocalcin ([3]; MAD 1.0 mg/kg, Day 17 recovery): 25.9 ± 8.0 ng/mL
Osteocalcin ([3]; MAD 3.0 mg/kg, Day 1 (8 h after initial dose)): 13.6 ± 11.5 ng/mL
Osteocalcin [3, 8]: 13.7 ± 11.6 ng/mL
Osteocalcin ([3]; MAD 3.0 mg/kg, Day 14 (8 h after last dose)): 13.0 ± 11.0 ng/mL
Osteocalcin [3, 9]: 17.1 ± 13.3 ng/mL
Osteocalcin ([3]; MAD 3.0 mg/kg, Day 15 recovery): 16.1 ± 12.5 ng/mL
Osteocalcin ([3]; MAD 3.0 mg/kg, Day 17 recovery): 13.9 ± 9.5 ng/mL
Osteocalcin ([3]; MAD 9.0 mg/kg, Day 1 (8 h after initial dose)): 20.4 ± 4.7 ng/mL
Osteocalcin [3, 10]: 32.9 ± 8.6 ng/mL
Osteocalcin ([3]; MAD 9.0 mg/kg, Day 14 (8 h after last dose)): 18.7 ± 4.3 ng/mL
Osteocalcin [3, 11]: 24.0 ± 6.4 ng/mL
Osteocalcin ([3]; MAD 9.0 mg/kg, Day 15 recovery): 26.7 ± 5.2 ng/mL
Osteocalcin ([3]; MAD 9.0 mg/kg, Day 17 recovery): 33.5 ± 7.2 ng/mL
Osteocalcin ([3]; MAD 20.0 mg/kg, Day 1 (8 h after initial dose)): 20.2 ± 4.6 ng/mL
Osteocalcin [3, 12]: 31.5 ± 6.7 ng/mL
Osteocalcin ([3]; MAD 20.0 mg/kg, Day 14 (8 h after last dose)): 17.0 ± 3.7 ng/mL
Osteocalcin [3, 13]: 32.8 ± 7.6 ng/mL
Osteocalcin ([3]; MAD 20.0 mg/kg, Day 15 recovery): 27.8 ± 5.9 ng/mL
Osteocalcin ([3]; MAD 20.0 mg/kg, Day 17 recovery): 34.6 ± 6.1 ng/mL
osteocalcin and CTX1 vs placebo ([3]; any MAD dose group, through 20 mg/kg/day): no significant changes
solubility [4]: very poor solubility in aqueous solutions
adrenal suppressive activity relative to traditional glucocorticoids [5]: ~ 1%
